Target: T1, Human recombinant CETP (Homo sapiens, UniProt P11597)
T1 construct: made in house; host or cells: CHO cells (serum-free conditioned medium)
T1 sequence (P11597 18-493): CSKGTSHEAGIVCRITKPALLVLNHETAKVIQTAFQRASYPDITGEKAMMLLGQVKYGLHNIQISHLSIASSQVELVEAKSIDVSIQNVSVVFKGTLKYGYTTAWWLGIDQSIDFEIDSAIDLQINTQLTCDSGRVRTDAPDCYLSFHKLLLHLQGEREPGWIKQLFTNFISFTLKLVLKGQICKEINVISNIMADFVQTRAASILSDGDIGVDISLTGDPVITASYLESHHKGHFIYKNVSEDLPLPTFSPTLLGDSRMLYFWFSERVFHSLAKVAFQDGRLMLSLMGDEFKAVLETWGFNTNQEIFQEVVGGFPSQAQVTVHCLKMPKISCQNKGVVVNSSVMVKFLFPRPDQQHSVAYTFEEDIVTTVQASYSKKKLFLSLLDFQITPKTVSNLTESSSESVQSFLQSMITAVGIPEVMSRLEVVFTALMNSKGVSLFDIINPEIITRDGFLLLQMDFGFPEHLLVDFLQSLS
Experiment: Assay of CETP Inhibition Using Purified Components (Reconstituted Buffer Assay)
Format: biochemical
Details: transfer of [3H]CE from HDL to LDL; 2 hours at 37° C.
Description: Assay of CETP Inhibition Using Purified Components (Reconstituted Buffer Assay)
The ability of compounds to inhibit CETP activity was assessed using an in vitro assay that measured the rate of transfer of radiolabeled cholesteryl ester ([^3H]CE) from HDL donor particles to LDL acceptor particles. Details of the assay are provided by Glenn, K. C. et al. (Glenn and Melton, “Quantification of Cholesteryl Ester Transfer Protein (CETP): A) CETP Activity and B) Immunochemical Assay of CETP Protein,” Meth. Enzymol., 263, 339-351 (1996)). Human recombinant CETP can be obtained from the serum-free conditioned medium of CHO cells transfected with a cDNA for CETP and purified as described by Wang, S. et al. (J. Biol. Chem. 267, 17487-17490 (1992)). To measure CETP activity, [^3H]CE-labeled-HDL, LDL, CETP and assay buffer (50 mM tris(hydroxymethyl)aminomethane, pH 7.4; 150 mM sodium chloride; 2 mM ethylenediamine-tetraacetic acid (EDTA); 1% bovine serum albumin) were incubated in a final volume of 200 μL, for 2 hours at 37° C. in 96 well plates. Inhibitors were included in the assay by diluting from a 10 mM DMSO stock solution into 16% (v/v) aqueous DMSO so that the final concentration of inhibitor was 800 μM. The inhibitors were then diluted 1:1 with CETP in assay buffer, and then 25 μL of that solution was mixed with 175 μL of lipoprotein pool for assay. Following incubation, LDL was differentially precipitated by the addition of 50 μL of 1% (w/v) dextran sulfate/0.5 M magnesium chloride, mixed by vortex, and incubated at room temperature for 10 minutes. A potion of the solution (200 μL) was transferred to a filter plate (Millipore). After filtration, the radioactivity present in the precipitated LDL was measured by liquid scintillation counting. […] The rate of [^3H]CE transfer using this assay was linear with respect to time and CETP concentration, up to 25-30% of [^3H]CE transferred.
This value was defined as the IC50.

IC50 [µM] | SMILES
30 | CCCC(O)CN(Cc1cccc(OC(F)(F)F)c1)Cc1cccc(OC(F)(F)F)c1 (stereo not shown) [compound 11]
> 100 | OC(CN1CCOCC1)CN(Cc1cccc(OC(F)(F)F)c1)Cc1cccc(OC(F)(F)F)c1 (stereo not shown) [compound 19]
90 | CC(O)CN(Cc1cccc(OC(F)(F)F)c1)Cc1cccc(OC(F)(F)F)c1 (stereo not shown) [compound 14]
> 100 | OC(COc1ccccc1)CN(Cc1cccc(OC(F)(F)F)c1)Cc1cccc(OC(F)(F)F)c1 (stereo not shown) [compound 17]
> 100 | OCC(O)CN(Cc1cccc(OC(F)(F)F)c1)Cc1cccc(OC(F)(F)F)c1 (stereo not shown) [compound 16]
> 100 | CCOC(=O)C(O)CN(Cc1cccc(OC(F)(F)F)c1)Cc1cccc(OC(F)(F)F)c1 (stereo not shown) [compound 15]
80 | COCC(O)CN(Cc1cccc(OC(F)(F)F)c1)Cc1cccc(OC(F)(F)F)c1 (stereo not shown) [compound 13]
14 | OC(Cc1ccccc1)CN(Cc1cccc(OC(F)(F)F)c1)Cc1cccc(OC(F)(F)F)c1 (stereo not shown) [compound 12]

Continued, compound first:

SMILES | IC50 [µM]
FC(F)(F)Oc1cccc(CN(CCc2ccc(C(F)(F)F)cc2)c2cccc(Oc3ccccc3)c2)c1 [Example 27, N-[(3-phenoxy)phenyl]-N-[[(3-trifluoromethoxy)phenyl]methyl]-2-[(4-trifluoromethyl)phenyl]ethanamine] | > 100
OCC(c1ccc(C(F)(F)F)cc1)N(Cc1cccc(OC(F)(F)F)c1)c1cccc(Oc2ccccc2)c1 (stereo not shown) [1B, 2-[(3-phenoxy)phenyl[[(3-trifluoromethoxy)phenyl]methyl]amino]-2-[(4-trifluoromethyl)phenyl]ethanol] | 6
OC1CCCCC1N(Cc1cccc(OC(F)(F)F)c1)c1cccc(Oc2ccccc2)c1 (stereo not shown) [Example 26] | 15
COc1ccc(OCC(O)CN(Cc2cccc(OC(F)(F)F)c2)Cc2cccc(OC(F)(F)F)c2)cc1 (stereo not shown) [compound 21] | > 100
C=CC(O)CN(Cc1cccc(OC(F)(F)F)c1)c1cccc(Oc2ccccc2)c1 (stereo not shown) [Example 4] | > 50
OC(Cc1ccccc1)CN(Cc1cccc(OC(F)(F)F)c1)c1cccc(Oc2ccccc2)c1 (stereo not shown) [Example 5] | > 50
OC(CN(Cc1cccc(OC(F)(F)F)c1)c1cccc(Oc2ccccc2)c1)c1ccccc1 (stereo not shown) [Example 3] | 44
OC(COc1ccc(Cl)cc1)CN(Cc1cccc(OC(F)(F)F)c1)Cc1cccc(OC(F)(F)F)c1 (stereo not shown) [compound 18] | > 100
OC(COc1ccc(Cl)cc1)CN(Cc1cccc(OC(F)(F)F)c1)c1cccc(Oc2ccccc2)c1 (stereo not shown) [Example 6] | > 100
OC(COCc1ccco1)CN(Cc1cccc(OC(F)(F)F)c1)c1cccc(Oc2ccccc2)c1 (stereo not shown) [Example 7] | > 100
OC(CN(Cc1cccc(OC(F)(F)F)c1)c1cccc(Oc2ccccc2)c1)c1ccc(C(F)(F)F)cc1 (stereo not shown) [EX-1A, 2-[(3-phenoxy)phenyl[[(3-trifluoromethoxy)phenyl]methyl]amino]-1-[(4-trifluoromethyl)phenyl]ethanol] | 18
FC(CN(Cc1cccc(OC(F)(F)F)c1)c1cccc(Oc2ccccc2)c1)c1ccc(C(F)(F)F)cc1 (stereo not shown) [Example 28, N-[(3-phenoxy)phenyl]-N-[[(3-trifluoromethoxy)phenyl]methyl]-2-[(4-trifluoromethyl)phenyl]-2-fluoro-ethanamine] | > 100
O=C1c2ccccc2C(=O)N1CC(O)CN(Cc1cccc(OC(F)(F)F)c1)Cc1cccc(OC(F)(F)F)c1 (stereo not shown) [compound 20] | > 100
OC(CN(Cc1cccc(OC(F)(F)C(F)F)c1)c1cccc(Oc2ccccc2)c1)c1ccccc1 (stereo not shown) [Example 10] | 57
COC(=O)C(C)(O)CN(Cc1cccc(OC(F)(F)F)c1)c1cccc(Oc2ccccc2)c1 (stereo not shown) [Example 9] | 24
CCCC(O)CN(Cc1cccc(OC(F)(F)F)c1)c1cccc(Oc2ccccc2)c1 (stereo not shown) [Example 2] | 3.6
OCC(c1cccc(C(F)(F)F)c1)N(Cc1cccc(OC(F)(F)F)c1)c1cccc(Oc2ccccc2)c1 (stereo not shown) [Example 8] | 7

From patent publication US6861561B2, “Substituted aromatic policyclic tertiary-heteroalkylamines useful for inhibiting cholesteryl ester transfer protein activity” (G. D. Searle & Co., priority 1999, dated 2005)
